Laboratory results reported in PMC10485887, “PET Evaluation of the Novel F-18 Labeled Reversible Radioligand [^18F]GEH200449 for Detection of Monoamine Oxidase-B in the Non-Human Primate Brain” (ACS Chemical Neuroscience, 2023).
Where two headings read alike, the source gives them in different places.

Test system: MAO-B
Assay type: in vivo, Macaca fascicularis
Details: for 2-TC parameter estimate k2 / 2-TC parameter estimate k3 / 2-TC parameter estimate k4 / 2-TC parameter estimate K1 / 2-TC parameter estimate VT / VT, 2-TC mean / VT, Logan mean: baseline
Experimental: At start of PET data acquisition, a sterile physiological phosphate buffer solution (pH = 7.4) of [^18F]GEH200449 (injected radioactivity, 107–167 MBq) was injected as a bolus into a sural vein. Emission data were acquired in list mode for 123 min. Arterial blood was sampled as previously described[28] using an automated blood sampling system (ABSS) during the first 3 min of each PET measurement. Subsequently, arterial blood samples (0.7–2.5 mL) were manually drawn at 7, 15, 30, 60, 90, and 120 min after injection of [^18F]GEH200449. After centrifugation, 0.15–1.0 mL of plasma was pipetted and plasma radioactivity was measured in a well counter. In addition, samples were taken directly from the ABSS at 0.5, 1, 1.5, 2, 2.5, and 3 min for cross-calibration with the well counter and for the determination of the plasma-to-blood ratio.
Dynamic images were reconstructed as previously described.[30],[31] Regions of interest (ROIs) for the whole brain and selected regions (caudate nucleus, putamen, thalamus, occipital cortex, prefrontal cortex, and cerebellum) were manually delineated on T1-weighted magnetic resonance images (MRIs) acquired as previously described.[21],[27] PET images were coregistered to the MRIs, and time-activity curves were generated by pooling ROIs for each paired anatomical region and applying the pooled ROIs to the coregistered PET images. Delineation of ROIs and image coregistrations were performed using the software PMOD v. 3.6 (PMOD Technologies, Zurich, Switzerland).
Time curves for regional [^18F]GEH200449 binding at baseline were analyzed by kinetic modeling using 1-TC and 2-TC models,[32] and VT as outcome measures. Akaike information criterion[33] and F statistics were applied to select the preferred model. Regional estimates of VT for [^18F]GEH200449 were also obtained using the Logan linear graphical method[34] with t* fixed at 40 min. The analyses were performed using the kinetic modeling tool in PMOD v. 4.3. Occupancy at [^18F]GEH200449 binding sites was estimated based on regional VT values obtained by the Logan method at baseline and after drug administration according to a graphical procedure described in the literature.[22]

O=c1ccoc2ccc(OCc3ccc([18F])nc3)cc12 [[^18F]GEH200449]
2-TC parameter estimate k2 (NHP #4, CER): 0.03 min⁻¹
2-TC parameter estimate k3 (NHP #4, CER): 0.001 min⁻¹
2-TC parameter estimate k4 (NHP #4, CER): 0.000 min⁻¹
2-TC parameter estimate K1 (NHP #4, OC): 0.31 mL min-1 cm-3
2-TC parameter estimate k2 (NHP #4, OC): 0.03 min⁻¹
2-TC parameter estimate k3 (NHP #4, OC): 0.001 min⁻¹
2-TC parameter estimate k4 (NHP #4, OC): 0.000 min⁻¹
2-TC parameter estimate K1 (NHP #4, PFC): 0.37 mL min-1 cm-3
2-TC parameter estimate VT (NHP #4, PFC): 13.9 mL cm-3
2-TC parameter estimate k2 (NHP #4, PFC): 0.03 min⁻¹
2-TC parameter estimate k3 (NHP #4, PFC): 0.002 min⁻¹
2-TC parameter estimate k4 (NHP #4, PFC): 0.013 min⁻¹
2-TC parameter estimate K1 (NHP #4, PUT): 0.57 mL min-1 cm-3
2-TC parameter estimate VT (NHP #4, PUT): 17.2 mL cm-3
2-TC parameter estimate k2 (NHP #4, PUT): 0.04 min⁻¹
2-TC parameter estimate k3 (NHP #4, PUT): 0.006 min⁻¹
2-TC parameter estimate k4 (NHP #4, PUT): 0.034 min⁻¹
2-TC parameter estimate K1 (NHP #4, THA): 0.53 mL min-1 cm-3
2-TC parameter estimate VT (NHP #4, THA): 18.1 mL cm-3
2-TC parameter estimate k2 (NHP #4, THA): 1.24 min⁻¹
2-TC parameter estimate k3 (NHP #4, THA): 4.043 min⁻¹
2-TC parameter estimate k4 (NHP #4, THA): 0.098 min⁻¹
2-TC parameter estimate K1 (NHP #4, WB): 0.34 mL min-1 cm-3
2-TC parameter estimate VT (NHP #4, WB): 13.1 mL cm-3
2-TC parameter estimate k2 (NHP #4, WB): 0.03 min⁻¹
2-TC parameter estimate k3 (NHP #4, WB): 0.003 min⁻¹
2-TC parameter estimate k4 (NHP #4, WB): 0.016 min⁻¹
2-TC parameter estimate K1 (NHP #5, CAU): 0.93 mL min-1 cm-3
2-TC parameter estimate VT (NHP #5, CAU): 34.1 mL cm-3
2-TC parameter estimate k2 (NHP #5, CAU): 0.05 min⁻¹
2-TC parameter estimate k3 (NHP #5, CAU): 0.004 min⁻¹
2-TC parameter estimate k4 (NHP #5, CAU): 0.004 min⁻¹
2-TC parameter estimate K1 (NHP #5, CER): 0.51 mL min-1 cm-3
2-TC parameter estimate VT (NHP #5, CER): 16.0 mL cm-3
2-TC parameter estimate k2 (NHP #5, CER): 0.05 min⁻¹
2-TC parameter estimate k3 (NHP #5, CER): 0.006 min⁻¹
2-TC parameter estimate k4 (NHP #5, CER): 0.011 min⁻¹
2-TC parameter estimate K1 (NHP #5, OC): 0.37 mL min-1 cm-3
2-TC parameter estimate k2 (NHP #5, OC): 0.04 min⁻¹
2-TC parameter estimate k3 (NHP #5, OC): 0.002 min⁻¹
2-TC parameter estimate k4 (NHP #5, OC): 0.000 min⁻¹
2-TC parameter estimate K1 (NHP #5, PFC): 0.61 mL min-1 cm-3
2-TC parameter estimate VT (NHP #5, PFC): 20.4 mL cm-3
2-TC parameter estimate k2 (NHP #5, PFC): 0.05 min⁻¹
2-TC parameter estimate k3 (NHP #5, PFC): 0.004 min⁻¹
2-TC parameter estimate k4 (NHP #5, PFC): 0.006 min⁻¹
2-TC parameter estimate K1 (NHP #5, PUT): 0.86 mL min-1 cm-3
2-TC parameter estimate VT (NHP #5, PUT): 21.1 mL cm-3
2-TC parameter estimate k2 (NHP #5, PUT): 0.06 min⁻¹
2-TC parameter estimate k3 (NHP #5, PUT): 0.007 min⁻¹
2-TC parameter estimate k4 (NHP #5, PUT): 0.012 min⁻¹
2-TC parameter estimate K1 (NHP #5, THA): 0.64 mL min-1 cm-3
2-TC parameter estimate VT (NHP #5, THA): 27.7 mL cm-3
2-TC parameter estimate k2 (NHP #5, THA): 0.04 min⁻¹
2-TC parameter estimate k3 (NHP #5, THA): 0.004 min⁻¹
2-TC parameter estimate k4 (NHP #5, THA): 0.005 min⁻¹
2-TC parameter estimate K1 (NHP #5, WB): 0.50 mL min-1 cm-3
2-TC parameter estimate VT (NHP #5, WB): 17.3 mL cm-3
2-TC parameter estimate k2 (NHP #5, WB): 0.05 min⁻¹
2-TC parameter estimate k3 (NHP #5, WB): 0.005 min⁻¹
2-TC parameter estimate k4 (NHP #5, WB): 0.008 min⁻¹
pattern of regional radioactivity (binding) (baseline PET images and time curves): high binding in the striatum and thalamus, whereas the binding was lower in the cortex and cerebellum
VT, 2-TC mean (caudate nucleus, n = 4): 22.0 mL cm^–3
VT, Logan mean (caudate nucleus, n = 4): 18.9 mL cm^–3
VT, 2-TC mean (cerebellum, n = 3): 13.6^** mL cm^–3
VT, Logan mean (cerebellum, n = 4): 12.6 mL cm^–3
VT, 2-TC mean (occipital cortex, n = 2): 11.0^* mL cm^–3
VT, Logan mean (occipital cortex, n = 4): 11.0 mL cm^–3
VT, 2-TC mean (prefrontal cortex, n = 4): 14.7 mL cm^–3
VT, Logan mean (prefrontal cortex, n = 4): 13.1 mL cm^–3
VT, 2-TC mean (putamen, n = 4): 17.3 mL cm^–3
VT, Logan mean (putamen, n = 4): 16.5 mL cm^–3
VT, 2-TC mean (thalamus, n = 4): 19.8 mL cm^–3
VT, Logan mean (thalamus, n = 4): 17.3 mL cm^–3
VT, 2-TC mean (whole brain, n = 4): 13.5 mL cm^–3
VT, Logan mean (whole brain, n = 4): 12.4 mL cm^–3
